Data: patent US4535090A, “3,5-Diphenyl-1H-1,2,4-triazoles pharmaceutical compositions and uses” (Gruppo Lepetit S.p.A., priority 1981, dated 1985)

Test system: pregnancy in female Sprague Dawley rats
Assay: Pregnancy termination activity in rats after a single subcutaneous injection at day 7 of gestation
Type: in vivo, rat (Sprague Dawley)
Settings: rat, single s.c. injection, dissolved in sesame oil containing 20% benzyl benzoate (or suspended if insoluble), autopsy day 16
Protocol: In particular, female Sprague Dawley rats weighing 200-230 g were mated and the presence of sperm in the vagina was taken as evidence of mating. The day the sperm was detected, was considered day one of pregnancy. Pregnancy was later confirmed at the time of autopsy by the presence of implantation sites in the uterus.
Test compounds dissolved in sesame oil containing 20% benzyl benzoate (or suspended if insoluble), were administered subcutaneously, in a single injection, on day 7 of gestation. The animals were then autopsied on day 16 of pregnancy and the uteri were examined for evidence of pregnancy (implantation sites, fetal resorption or live fetuses), hemorrage, and evidence of abnormalities of the uterus, placenta or fetuses.

| Compound | ED50 (dose terminating pregnancy, absence of live fetuses, in 50% of the treated animals) [mg/kg] |
| --- | --- |
| 1-acetyl-3(5)-(2-decanoyloxymethylphenyl)-5(3)-(3,4-dimethoxyphenyl)-1H-1,2,4-triazole [Example 10] | 4 |
| 1-hexanoyl-3(5)-(2-hexanoyloxymethylphenyl)-5(3)-(3-methoxyphenyl)-1H-1,2,4-triazole [Example 11] | 8 |

Same assay, conditions: sc, rat, single s.c. injection, dissolved in sesame oil containing 20% benzyl benzoate (or suspended if insoluble), autopsy day 16, read-out: ED50 (dose terminating pregnancy, absence of live fetuses, in 50% of the treated animals)

| Compound | ED50 [mg/kg] |
| --- | --- |
| COc1cccc(-c2n[nH]c(-c3ccccc3COC(C)=O)n2)c1 [5-(2-Acetyloxymethylphenyl)-3-(3-methoxyphenyl)-1H--1,2,4-triazole, reference compound] | 50 |
| CCCCCCCC(=O)OCc1ccccc1-c1nc(-c2cccc(OC)c2)n[nH]1 [Example 1, 3-(3-methoxyphenyl)-5-(2-octanoyloxymethylphenyl)-1H-1,2,4-triazole] | 13 |
| CCCCCCCCCCCC(=O)OCc1ccccc1-c1nc(-c2cccc(OC)c2)n[nH]1 [Example 2, 5-(2-dodecanoyloxymethylphenyl)-3-(3-methoxyphenyl)-1H-1,2,4-triazole] | 2 |
| CCCCCCCC(=O)OCc1ccccc1-c1nc(-c2cccc(OCC)c2)n[nH]1 [Example 3, 3-(3-ethoxyphenyl)-5-(2-octanoyloxymethylphenyl)-1H-1,2,4-triazole] | 4 |
| CCCCCCCCCC(=O)OCc1ccccc1-c1nc(-c2cccc(OC)c2)n[nH]1 [Example 4, 5-(2-decanoyloxymethylphenyl)-3-(3-methoxyphenyl)-1H-1,2,4-triazole] | 2 |
| CCCCCCCCCCCC(=O)OCc1ccccc1-c1nc(-c2ccc(OC)c(OC)c2)n[nH]1 [Example 6, 5-(2-dodecanoyloxymethylphenyl)-3-(3,4-dimethoxyphenyl)-1H-1,2,4-triazole] | 2 |
| CCCCCCCCCC(=O)OCc1ccccc1-c1nc(-c2cccc(OCC)c2)n[nH]1 [Example 7] | 2 |
| CCCCCCCCCC(=O)OCc1ccccc1-c1nc(-c2ccc(OC)c(OC)c2)n[nH]1 [Example 8, 5-(2-decanoyloxymethylphenyl)-3-(3,4-dimethoxyphenyl)-1H-1,2,4-triazole] | 10 |
| CCCCCC(=O)OCc1ccccc1-c1nc(-c2cccc(OCC)c2)n[nH]1 [Example 9, 3-(3-ethoxyphenyl)-5-(2-hexanoyloxymethylphenyl)-1H-1,2,4-triazole] | 7 |

Same assay, conditions: sc, rat, single s.c. injection, given suspended instead of dissolved, autopsy day 16, read-out: ED50 (dose terminating pregnancy, absence of live fetuses, in 50% of the treated animals)

| Compound | ED50 [mg/kg] |
| --- | --- |
| COc1cccc(-c2n[nH]c(-c3ccccc3CO)n2)c1 [5-(2-Hydroxymethylphenyl)-3-(3-methoxyphenyl)-1H--1,2,4-triazole, reference compound] | 40 |
